Source: PMC12042115 (mLife, 2025)
≈ marks a conversion by molar mass, not a printed value. Where two headings read alike, the source gives them in different places.

How the values were obtained:
Mtb ClpP1P2 = Mtb ClpP1P2 (Mycobacterium tuberculosis, UniProt P9WPC3+P9WPC5); assay: Mtb ClpP1P2 peptidase assay (library screening and IC50 determination); format: biochemical
GH189 (clpP1‐KD) = assay: microbe, parasite or virus in culture; format: cell-based, M. bovis BCG; conditions: for MIC: Mycobacterium tuberculosis variant bovis BCG
M. tuberculosis H37Rv = assay: MIC against Mtb H37Rv; format: cell-based, Mycobacterium tuberculosis; conditions: for MIC90: Mycobacterium tuberculosis, H37RV
[1] = Figure 2B, neat/synthesized compounds, read-out: ClpP1P2 IC50
[2] = read-out: MIC (µg/ml) when clpP1‐KD induced
[3] = read-out: MIC (µg/ml) when no clpP1‐KD
[4] = Figure S4, highest concentration 100 µM, read-out: concentration inhibiting 50% of the peptidase activity

Sequence of Mtb ClpP1P2 (P9WPC3 16-214, one chain of several): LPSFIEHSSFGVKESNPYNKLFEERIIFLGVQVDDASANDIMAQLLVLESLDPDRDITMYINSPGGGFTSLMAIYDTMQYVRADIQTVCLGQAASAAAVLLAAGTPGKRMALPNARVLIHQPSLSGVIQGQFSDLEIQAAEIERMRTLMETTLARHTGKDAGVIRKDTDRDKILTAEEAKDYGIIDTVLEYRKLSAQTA

Compound	MIC (GH189 (clpP1‐KD); [2]) [µg/mL]	MIC (GH189 (clpP1‐KD); [3]) [µg/mL]	further results
O=C(Oc1ccc(Cl)cc1)c1ccc(COC(=O)c2cnccn2)cc1 [SAM002946897]			IC50 (Mtb ClpP1P2; library stocks, concentration–response, read-out: IC50): 3.23 µM
O=C(Oc1ccccc1)c1ccc(N2CCOCC2)c([N+](=O)[O-])c1 [GDI‐5756]			MIC shift against GH189 on ATc induction (GH189 (clpP1‐KD)): marginally shifted down; inhibition of Mtb whole cell at 100 µM (M. tuberculosis H37Rv): Neither analog could inhibit; MIC90 (M. tuberculosis H37Rv): > 100 µM; inhibition of ClpP1P2 peptidase at 100 µM (Mtb ClpP1P2): Neither analog could inhibit; IC50 (Mtb ClpP1P2; [1]): > 100 µM
O=[N+]([O-])c1cn2c(n1)OC[C@@H](OCc1ccc(OC(F)(F)F)cc1)C2 [Pretomanid]	0.06 (≈ 0.167 µM)	0.12 (≈ 0.334 µM)	
Capreomycin			MIC (µg/ml) when clpP1‐KD induced (GH189 (clpP1‐KD)): 0.14 µg/mL; MIC (µg/ml) when no clpP1‐KD (GH189 (clpP1‐KD)): 0.25 µg/mL
C[C@@H](O)[C@H]1C(=O)N2C(C(=O)O)=C(S[C@@H]3CN[C@H](C(=O)N(C)C)C3)[C@H](C)[C@H]12 [Meropenem]	1.6 (≈ 4.17 µM)	5.3 (≈ 13.8 µM)	downshift in the MIC against GH189 on clpP1‐KD (GH189 (clpP1‐KD)): > 2 fold; IC50 (Mtb ClpP1P2; [4]): > 100 µM
CCc1cc(C(N)=S)ccn1 [Ethionamide]	6.4 (≈ 38.5 µM)	46 (≈ 277 µM)	downshift in the MIC against GH189 on clpP1‐KD (GH189 (clpP1‐KD)): > 2 fold; IC50 (Mtb ClpP1P2; [4]): > 100 µM
O=C(Nc1ccc(Cl)cc1)c1ccc(N2CCOCC2)c([N+](=O)[O-])c1 [GDI‐5757]			MIC shift against GH189 on ATc induction (GH189 (clpP1‐KD)): remained inactive; inhibition of Mtb whole cell at 100 µM (M. tuberculosis H37Rv): Neither analog could inhibit; MIC90 (M. tuberculosis H37Rv): > 100 µM; inhibition of ClpP1P2 peptidase at 100 µM (Mtb ClpP1P2): Neither analog could inhibit; IC50 (Mtb ClpP1P2; [1]): > 100 µM
CC(=O)NC[C@H]1CN(c2ccc(N3CCOCC3)c(F)c2)C(=O)O1 [Linezolid]	0.97 (≈ 2.88 µM)	1 (≈ 2.96 µM)	
CC[C@H]1OC(=O)[C@H](C)[C@@H](O[C@H]2C[C@@](C)(OC)[C@@H](O)[C@H](C)O2)[C@H](C)[C@@H](O[C@@H]2O[C@H](C)C[C@H](N(C)C)[C@H]2O)[C@](C)(OC)C[C@@H](C)C(=O)[C@H](C)[C@@H](O)[C@]1(C)O [Clarithromycin]	0.1 (≈ 0.134 µM)	0.11 (≈ 0.147 µM)	
NC(=O)c1cnccn1 [Pyrazinamide, reference compound]			IC50 (Mtb ClpP1P2; [4]): > 100 µM
N[C@@H]1CON=C1O [D‐Cycloserine]	9.3 (≈ 91.1 µM)	11 (≈ 108 µM)	
NNC(=O)c1ccncc1 [Isoniazid]	0.057 (≈ 0.416 µM)	0.066 (≈ 0.481 µM)	IC50 (Mtb ClpP1P2; [4]): > 100 µM
COc1nc2ccc(Br)cc2cc1[C@@H](c1ccccc1)[C@@](O)(CCN(C)C)c1cccc2ccccc12 [Bedaquiline]	0.06 (≈ 0.108 µM)	0.06 (≈ 0.108 µM)	
CO[C@H]1/C=C/O[C@@]2(C)Oc3c(C)c(O)c4c(O)c(c(/C=N/N5CCN(C)CC5)c(O)c4c3C2=O)NC(=O)/C(C)=C\C=C\[C@H](C)[C@H](O)[C@@H](C)[C@@H](O)[C@@H](C)[C@H](OC(C)=O)[C@@H]1C [Rifampicin]	0.01 (≈ 0.0122 µM)	0.01 (≈ 0.0122 µM)	
CC[C@H]1OC(=O)[C@H](C)[C@@H](O[C@H]2C[C@@](C)(OC)[C@@H](O)[C@H](C)O2)[C@H](C)[C@@H](O[C@@H]2O[C@H](C)C[C@H](N(C)C)[C@H]2O)[C@](C)(O)C[C@@H](C)CN(C)[C@H](C)[C@@H](O)[C@]1(C)O [Azithromycin]	0.46 (≈ 0.614 µM)	0.5 (≈ 0.668 µM)	
CO[C@H]1/C=C/O[C@@]2(C)Oc3c(C)c(O)c4c(O)c(cc(O)c4c3C2=O)NC(=O)/C(C)=C\C=C\[C@H](C)[C@H](O)[C@@H](C)[C@@H](O)[C@@H](C)[C@H](OC(C)=O)[C@@H]1C [Rifamycin, reference compound]			IC50 (Mtb ClpP1P2; [4]): > 100 µM
[H]/N=C(/N)N[C@H]1[C@H](O)[C@@H](O)[C@H](O[C@@H]2O[C@@H](C)[C@](O)(C=O)[C@H]2O[C@@H]2O[C@@H](CO)[C@H](O)[C@@H](O)[C@@H]2NC)[C@@H](N/C(N)=N\[H])[C@@H]1O [Streptomycin]	0.23 (≈ 0.395 µM)	0.24 (≈ 0.413 µM)	
CC[C@@H](CO)NCCN[C@@H](CC)CO [Ethambutol]	0.28 (≈ 1.37 µM)	0.62 (≈ 3.03 µM)	downshift in the MIC against GH189 on clpP1‐KD (GH189 (clpP1‐KD)): > 2 fold
